Test system: venous thromboembolism (VTE) in patients hospitalized for acute medical illness
Assay: MAGELLAN (Study 1): efficacy of oral rivaroxaban 10 mg OD 35 days vs sc enoxaparin 40 mg OD 10 days then placebo
Type: in vivo
Protocol: The objective of Study 1 (MAGELLAN or MAGELLAN Study) was to compare efficacy and safety of venous thromboembolism (VTE) prophylaxis with oral rivaroxaban 10 mg once daily administered for 35±4 days (hereafter referred to as 35 days or Day 35) to subcutaneous enoxaparin 40 mg once daily (OD) administered for 10±4 days (hereafter referred to as 10 days or Day 10) in men and women aged 40 years or above, who have been hospitalized for a medical illness.
Diagnosis and main criteria for inclusion in Study 1 was men and women 40 years or above and at risk for VTE being hospitalized for acute medical illness conditions, including: heart failure (New York Heart Association [NYHA] class III or IV); active cancer (e.g., admitted for chemotherapy or for the treatment of a complication of active cancer); acute ischemic stroke; acute infectious and inflammatory diseases, including acute rheumatic diseases; and acute respiratory insufficiency. Also at least one additional risk factor for VTE, including: severe varicosis (varicosities); chronic venous insufficiency; history of cancer; history of deep vein thrombosis (DVT) or pulmonary embolism (PE); history of heart failure (NYHA class III or IV); thrombophilia (hereditary or acquired); recent major surgery (6-12 weeks); recent serious trauma (6-12 weeks); hormone replacement therapy; advanced age greater than or equal to 75 years; morbid obesity (body mass index (BMI) 35 kg/m^2 or higher); and acute infectious disease contributing to hospitalization.
The study was conducted in a prospective, randomized, double-blind, double dummy, active comparator-controlled, multicenter and multinational design. There were 8101 subjects were randomized at 556 study centers in 52 countries to one of the two treatment groups. Of the 8101 randomized subjects, 4050 were randomized to active rivaroxaban and 4051 were randomized to active enoxaparin.
Primary Endpoints: The primary efficacy variable was a composite of the number of events of: asymptomatic proximal DVT in lower extremity detected by mandatory bilateral lower extremity venous ultrasonography; symptomatic DVT in lower extremity, proximal or distal; symptomatic, non-fatal PE; and VTE-related death defined as either a well-documented fatal PE, or sudden death with no other plausible explanation. The two primary efficacy endpoints were (i) test of superiority at Day 35 (Days 29-41, inclusive) and (ii) test of non-inferiority at Day 10 (Days 6-15, inclusive).
Secondary Endpoints: The first major secondary efficacy endpoint was defined as a composite of the test of superiority at Day 35 with component of VTE-related death substituted by all-cause mortality, up to Day 35. The second major efficacy secondary efficacy endpoint was the test for superiority at Day 10 using the same composite endpoint as the Day 10 non-inferiority test.
For both primary efficacy endpoints, the relative risk ratio (rivaroxaban/enoxaparin) with respect to the incidences of the primary efficacy endpoint was estimated based on a stratified estimator using Mantel-Haenszel weights (based on sample sizes by geographic region). The corresponding asymptotic 2-sided 95% confidence interval based on the approximation to the normal distribution was determined. Sensitivity analyses were performed for the primary efficacy endpoints.
The primary efficacy variable was a composite of the number of events of (1) asymptomatic proximal DVT in lower extremity detected by mandatory bilateral lower extremity venous ultrasonography; (2) symptomatic DVT in lower extremity, proximal or distal; (3) symptomatic, nonfatal PE; and (4) VTE-related death. […]

[1] = Day 10 + 5, PP Day 10 plus major and clinically relevant bleeds
[2] = Day 10 + 5, per protocol Day 10 analysis set
[3] = Day 10 + 5 up to Day 35 + 6, mITT (Day 10 to Day 35) analysis set
[4] = Day 10 + 5 up to Day 35 + 6, mITT (Day 10 to Day 35) analysis set, listed as enoxaparin
[5] = Day 35 + 6, mITT Day 35 analysis set
[6] = Day 35 + 6, mITT Day 35 analysis set, listed as enoxaparin
[7] = Day 35 + 6, mITT Day 35 plus major and clinically relevant bleeds

Substance: Enoxaparin
- Major vascular events (CV death, acute myocardial infarction, or acute ischemic stroke), incidence (Day 10): 1.0%
- Symptomatic VTE excluding VTE-related death, incidence (Day 10): 0.3%
- Symptomatic VTE including death, incidence (Day 10): 0.6%
- Net clinical benefit component: asymptomatic lower proximal deep vein thrombosis [1]: 71 (2.4%)
- Net clinical benefit component: clinically relevant non-major bleeding [1]: 32 (1.1%)
- Net clinical benefit component: death (pulmonary embolism) [1]: 6 (0.2%)
- Net clinical benefit component: major bleeding [1]: 4 (0.1%)
- Net clinical benefit component: symptomatic deep vein thrombosis in lower extremity [1]: 6 (0.2%)
- Net clinical benefit component: symptomatic non-fatal pulmonary embolism [1]: 2 (<0.1%)
- Net clinical benefit component: venous thromboembolism related death [1]: 6 (0.2%)
- Net clinical benefit, any event, incidence [1]: 118 (3.9%)
- Net clinical benefit, any event, incidence (Day 10 + 5, PP Day 10 plus major and clinically relevant bleeds, listed as enoxaparin): 3.9%
- Asymptomatic proximal deep vein thrombosis in lower extremity, incidence [2]: 71 (2.4%)
- Death (pulmonary embolism cannot be excluded), incidence [2]: 6 (0.2%)
- Primary efficacy composite, any event, incidence [2]: 82 (2.7%)
- Symptomatic deep vein thrombosis in lower extremity, incidence [2]: 6 (0.2%)
- Symptomatic non-fatal pulmonary embolism, incidence [2]: 2 (<0.1%)
- Venous thromboembolism related death, incidence [2]: 6 (0.2%)
- Primary efficacy composite, any event, incidence (Day 10 + 5, per protocol Day 10 analysis set, listed as enoxaparin): 2.7%
- Asymptomatic proximal deep vein thrombosis in lower extremity, incidence [3]: 89 (2.9%)
- Death (pulmonary embolism cannot be excluded), incidence [3]: 15 (0.5%)
- Death (pulmonary embolism), incidence [3]: 0%
- Symptomatic deep vein thrombosis in lower extremity, incidence [3]: 7 (0.2%)
- Symptomatic non-fatal pulmonary embolism, incidence [3]: 10 (0.3%)
- Venous thromboembolism related death, incidence [3]: 15 (0.5%)
- Primary efficacy composite, any event, incidence (Day 10 + 5 up to Day 35 + 6, mITT (Day 10 to Day 35) analysis set, rivaroxaban-placebo phase): 114 (3.8%)
- Primary efficacy composite, any event, incidence (Day 10 + 5 up to Day 35 + 6, mITT (Day 10 to Day 35) analysis set, rivaroxaban-placebo phase, listed as enoxaparin): 3.8%
- Asymptomatic proximal deep vein thrombosis in lower extremity, incidence [4]: 2.9%
- Venous thromboembolism related death, incidence [4]: 0.5%
- Major vascular events, incidence (Day 35): 1.6%
- Symptomatic VTE excluding VTE-related death, incidence (Day 35): 0.7%
- Symptomatic VTE including death, incidence (Day 35): 1.4%
- Asymptomatic proximal deep vein thrombosis in lower extremity, incidence [5]: 133 (4.4%)
- Death (pulmonary embolism cannot be excluded), incidence [5]: 29 (0.9%)
- Death (pulmonary embolism), incidence [5]: 1 (<0.1%)
- Primary efficacy composite, any event, incidence [5]: 175 (5.7%)
- Symptomatic deep vein thrombosis in lower extremity, incidence [5]: 15 (0.5%)
- Symptomatic non-fatal pulmonary embolism, incidence [5]: 14 (0.5%)
- Venous thromboembolism related death, incidence [5]: 30 (1.0%)
- Asymptomatic proximal deep vein thrombosis in lower extremity, incidence [6]: 4.4%
- Primary efficacy composite, any event, incidence [6]: 5.7%
- Venous thromboembolism related death, incidence [6]: 1.0%
- Net clinical benefit component: asymptomatic lower proximal deep vein thrombosis [7]: 133 (4.3%)
- Net clinical benefit component: clinically relevant non-major bleeding [7]: 52 (1.7%)
- Net clinical benefit component: death (pulmonary embolism cannot be excluded) [7]: 29 (0.9%)
- Net clinical benefit component: death (pulmonary embolism) [7]: 1 (<0.1%)
- Net clinical benefit component: major bleeding [7]: 15 (0.5%)
- Net clinical benefit component: symptomatic deep vein thrombosis in lower extremity [7]: 15 (0.5%)
- Net clinical benefit component: symptomatic non-fatal pulmonary embolism [7]: 14 (0.5%)
- Net clinical benefit component: venous thromboembolism related death [7]: 30 (1.0%)
- Net clinical benefit, any event, incidence [7]: 240 (7.8%)
- Net clinical benefit, any event, incidence (Day 35 + 6, mITT Day 35 plus major and clinically relevant bleeds, listed as enoxaparin): 7.8%
- Composite endpoint including all-cause mortality, incidence (Day 35, mITT Day 35 expanded): 9.2%
- All-cause mortality, incidence (Day 90): 6.2%
- Major vascular events, incidence (Day 90): 2.8%
- Symptomatic VTE excluding VTE-related death, incidence (Day 90): 0.9%
- Symptomatic VTE including death, incidence (Day 90): 1.9%

— patent US20200397795A1, “PROPHYLACTIC TREATMENT OF VENOUS THROMBOEMBOLISM” (JANSSEN PHARMACEUTICALS, INC., priority 2019, published 2020)
